Laboratory results from patent publication US20080306067A1, “Modulators of Chemokine Receptor Activity” (priority 2005, published 2008).

Key:
human CCR-3 = target: T1, human CCR-3 (Homo sapiens, UniProt P51677); experiment: binding of [125I]-human eotaxin to human CCR-3 (SPA, membranes of RBL-2H3 cells expressing CCR3); details: 4 hours at room temperature, read-out: IC50 (inhibition of binding of eotaxin to CCR-3)
T1 construct: expressed in transfected cells; membrane preparation
T1 sequence (P51677 1-355): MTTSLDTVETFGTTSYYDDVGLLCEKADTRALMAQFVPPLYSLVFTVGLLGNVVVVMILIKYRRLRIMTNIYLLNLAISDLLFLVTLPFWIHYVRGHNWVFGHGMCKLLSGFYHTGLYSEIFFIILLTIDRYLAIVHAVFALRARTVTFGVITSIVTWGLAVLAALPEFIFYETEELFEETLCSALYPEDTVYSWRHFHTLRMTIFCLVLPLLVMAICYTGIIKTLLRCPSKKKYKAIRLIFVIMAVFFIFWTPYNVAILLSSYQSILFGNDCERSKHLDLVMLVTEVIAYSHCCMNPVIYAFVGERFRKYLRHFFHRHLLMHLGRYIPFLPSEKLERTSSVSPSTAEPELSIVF
Description: In this assay the effect of the compounds of the present invention on the binding of human eotaxin to human CCR-3 is determined. Recombinant cells expressing human CCR-3 are captured by wheatgerm agglutinin (WGA) polyvinyltoluidene (PVT) SPA beads (available from Amersham), through a specific interaction between the WGA and carbohydrate residues of glycoproteins on the surface of the cells. [^125I]-human eotaxin (available from Amersham) binds specifically to CCR-3 receptors bringing the [^125I]-human eotaxin in close proximity to the SPA beads. Emitted â-particles from the [^125I]-human eotaxin excite, by its proximity, the fluorophore in the beads and produce light.
Preparation of Assay Buffer. 5.96 g HEPES and 7.0 g sodium chloride are dissolved in distilled H2O and 1M aq. CaCl2 (1 ml) and 1M aq. MgCl2 (5 ml) are added. The pH is adjusted to 7.6 with NaOH and the solution made to a final volume of 1 L using distilled H2O. 5 g of bovine serum albumin and 0.1 g NaN3 are dissolved in the solution and the resulting buffer stored at 4° C. […]
The assay is performed in a final volume of 250 μl per well of an Optiplate™ microplate (ex Canberra Packard). […] The resulting scintillations are counted using a Canberra Packard TopCount™ scintillation counter, each well being counted for 1 minute. […]

[1] = target: alpha-1 adrenergic receptor; experiment: alpha-1 adrenergic receptor radioligand binding assay ([125I]-HEAT, rat cerebral cortex membranes); details: radioligand used at 40 pM
Description: The inhibitory properties of the compounds of the present invention on binding of the alpha-1 adrenergic receptor can be determined in the following assay:
Cerebral cortices from male Sprague-Dawley rats (175-200 g) are dissected and homogenised in 10 volumes of ice cold 0.32 M sucrose (containing 1 mM MgCl2 dihydrate and 1 mM K2HPO4) with a glass/Teflon homogeniser. The membranes are centrifuged at 1000×g for 15 minutes, the pellet discarded and the centrifugation repeated. The supernatants are pooled and centrifuged at 18,000×g for 15 minutes. The pellet is osmotically shocked in 10 volumes of H2O and kept on ice for 30 minutes. The suspension is centrifuged at 39,000×g for 20 minutes, resuspended in Krebs-Henseleit buffer pH 7.4 (1.17 mM MgSO4 anhydrous, 4.69 mM KCl, 0.7 mM K2HPO4 anhydrous, 0.11 M NaCl, 11 mM D-glucose and 25 mM NaHCO3) containing 20 mM Tris, and kept for 2 days at −20° C. […]
The resulting membranes are subjected to a radioligand binding assay. […] Following drying of the plates for 3 h. at 50° C., 40 μl of Microscint 20 is added to each well, the plates incubated at room temperature for a further 20 minutes and the retained radioactivity quantified in a Packard TopCount NXT™ scintillation counter. […]

| SMILES | IC50 (human CCR-3) | Kd [1] |
| --- | --- | --- |
| CN(CCCCNC(=O)Nc1cccc(-c2nnnn2C)c1)Cc1ccc(F)cc1 [Example 1, 1-{4-[(4-Fluorobenzyl)-methylamino]butyl}-3-[3-(1-methyl-1H-tetrazol-5-yl)phenyl]-urea] | ~6 nM |  |
| O=C1c2ccccc2CCC1CNCCc1ccc(O)c(I)c1 (centres unmarked) [[^125I]-HEAT] |  | 0.0589 ± 0.0187 nM |
